Assays:
human ASIC3 channels = settings: natural sevanol; read-out: IC50, inhibition of human ASIC3 channels; cited from earlier work
ICR male mice [1] = assay: CFA-induced paw oedema; format: in vivo; settings: p.o. only, not i.v. or i.n., 2, 4, 8 and 24 h
ICR male mice [2] = assay: Abdominal constriction test of visceral pain (acetic acid-induced writhing); format: in vivo
Protocol: Specific pathogen-free outbred ICR male mice (6 to 8 weeks old, weighing 29 to 33 g) were obtained from the Animal Breeding Facility of the Branch of the Shemyakin-Ovchinnikov Institute of Bioorganic Chemistry of the Russian Academy of Sciences (Pushchino). The animals were acclimatized for 2 weeks before the experimental procedures, and were kept in two-corridor barrier rooms under a controlled environment: a temperature of 20 to 24 °C, a relative humidity of 30% to 60%, and a 12 h light cycle. The animals were housed in Type 3 standard polycarbonate cages (820 cm2) on bedding (LIGNOCEL BK 8/15, JRS, Germany), with ad libitum access to feed (SSNIFF V1534-300, Spezialdiaeten, GmbH) and filtered tap water. The mouse cages were also supplied with material for environmental enrichment, i.e., Mouse House (Techniplast, Italy). Sevanol or the vehicle was administered intravenously, intranasally and orally (30 min before testing).
The mice were divided into separate groups, and sevanol or saline was administrated (30 min before testing) as described above. Acetic acid in saline (0.6%, 10 mL/kg) was injected intraperitoneally. The mice were moved into transparent glass cylinders, and the number of writhes was registered for 15 min.
Figure 5 The analgesic and anti-inflammatory effects of sevanol following intravenous, intranasal and per os administration. The effect of sevanol on the acetic acid induced writhing (A–C) and on the mice withdrawal latency on a hot plate in the thermal hyperalgesia test after CFA injection (D–F) upon intravenous (A,D), intranasal (B,E) and oral (C,F) administration. […] The results are presented as the mean ± SD (n = 6–10). The p-values of the sevanol groups vs. the saline group are based on an analysis of variance and on Tukey’s test; * p < 0.05, ** p < 0.005, *** p < 0.001.

ASIC1a = molecular target: T1, ASIC1a (Rattus norvegicus, UniProt P55926); assay: Competition of sevanol with FRRFa peptide on ASIC1a current (integral currents); format: cell-based
T1 construct: expressed in transfected cells; host or cells: Xenopus laevis oocytes (cRNA injection)
T1 sequence (P55926 1-526): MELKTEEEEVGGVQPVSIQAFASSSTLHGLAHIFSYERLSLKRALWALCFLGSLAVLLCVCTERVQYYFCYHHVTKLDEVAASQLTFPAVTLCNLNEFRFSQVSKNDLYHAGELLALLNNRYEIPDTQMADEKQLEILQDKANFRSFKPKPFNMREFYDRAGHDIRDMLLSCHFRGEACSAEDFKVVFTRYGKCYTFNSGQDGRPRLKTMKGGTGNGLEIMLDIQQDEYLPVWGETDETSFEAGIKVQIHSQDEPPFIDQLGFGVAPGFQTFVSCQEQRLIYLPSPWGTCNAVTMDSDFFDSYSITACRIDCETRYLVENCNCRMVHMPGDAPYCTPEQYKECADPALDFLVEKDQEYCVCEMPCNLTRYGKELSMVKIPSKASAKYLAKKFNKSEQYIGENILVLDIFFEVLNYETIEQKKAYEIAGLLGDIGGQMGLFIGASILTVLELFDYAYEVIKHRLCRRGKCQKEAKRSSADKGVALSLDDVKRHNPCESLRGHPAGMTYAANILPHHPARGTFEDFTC
Text: It is known that RF-amide peptides produce a potentiating effect on ASIC1a by inhibiting the channel’s desensitization in the presence of protons (during acidic stimulation). […] Using molecular docking and site-directed mutagenesis, it has been shown that RF-amide peptides are most likely to bind to ASIC1a in the central vestibule of the chicken channel. […] The peptide worsened the effectiveness of the inhibitory action of sevanol on the channel by 1.5 times, and reduced the Hill coefficient (Figure 3). Thus, it can be assumed that the binding site of sevanol also lies in the region of the central vestibule.
Oocytes were harvested from female frogs anaesthetized with tricaine methane sulfonate (MS222) (0.17% solution), and the surgery was performed in an ice bath to avoid heavy bleeding. Defolliculated stage IV and V cells were injected with 2.5 and 10 ng cRNA, synthesized from PCi plasmids containing the rat ASIC1a and rat ASIC3 isoforms, respectively, using the Nanoliter 2000 microinjection system (World Precision Instruments, USA). The injected oocytes were kept for 2–3 days at 17 to 19 °C, and then for up to 5 days at 15 °C in a ND96 medium containing (in mM) 96 NaCl, 2 KCl, 1.8 CaCl2, 1 MgCl2, and 5 HEPES titrated to pH 7.4 with NaOH supplemented with gentamycin (50 μg/mL). Two-electrode voltage clamp recordings were performed at a holding potential of −50 mV using a GeneClamp 500 amplifier (Axon Instruments), and the data were filtered at 20 Hz and digitized at 100 Hz by an AD converter L780 (LCard, Russia). Microelectrodes were filled with 3 M KCl. The conditioning bath solution was ND96; the pH was adjusted to 7.4. The activating test solution was constructed based on the ND-96 buffer, in which 5 mM HEPES was replaced with 10 mM MES and pH was adjusted to 5.5. A computer-controlled valve system was used to achieve a rapid solution exchange in the recording chamber. A four parameter logistic equation was used for the curve-fitting analysis: F(x) = ((a1 − a2)/(1 + (x/x0)n)) + a2, where x is the concentration of the compound; F(x) is the response value at a given concentration of the compound; a1 is the control response value (fixed at 100%); x0 is the IC50 value; n is the Hill coefficient (slope factor); and a2 is the response value at the maximal inhibition (% of control).
Figure 3 Comparison of sevanol (s706) and the Phe-Arg-Arg-Phe-amide peptide (FRRFa) effects on the ASIC1a current. […] (B) Dose–response ASIC1a inhibitory curves for s706 alone (red line) and for s706 in the presence of 200 µM FRRFa (blue line), determined for integral currents. […]

## O=C(O)CC(C(=O)O)C(OC(=O)C1=Cc2cc(O)c(O)cc2C(c2ccc(O)c(O)c2)C1C(=O)OC(C(=O)O)C(CC(=O)O)C(=O)O)C(=O)O (stereo not shown) [sevanol]
Human ASIC3 channels
  IC50: 300 µM
ICR male mice [1]
  paw oedema reduction: significant reduction in paw oedema
ICR male mice [2]; intranasal, 1 mg/kg
  reduction of the number of writhes, i.n.: more than 50%
ICR male mice [2]; intranasal, 30 min before acetic acid
  dose producing statistically significant reduction of writhes, i.n.: higher than 0.1 mg/kg
ICR male mice [2]; intravenous, 1 mg/kg
  reduction of the number of writhes, i.v.: more than 50%
ICR male mice [2]; intravenous, 30 min before acetic acid
  dose producing statistically significant reduction of writhes, i.v.: higher than 0.1 mg/kg
ICR male mice [2]; oral, 1 mg/kg
  reduction of the number of writhes, p.o.: more than 50%
ICR male mice [2]; oral, 30 min before acetic acid
  dose from which effective in reducing writhes, p.o.: ≥ 0.01 mg/kg
ICR male mice [2]; p.o. vs i.v./i.n., both tests
  enhancement of analgesic and anti-inflammatory effect by oral administration versus other routes: 10 fold
ASIC1a; 200 μM FRRFa vs alone
  worsening of effectiveness of inhibitory action on ASIC1a by FRRFa peptide: 1.5 times
ASIC1a; integral currents, pH 5.5, 15 s pre-incubation, n = 5, read-out: IC50, ASIC1a inhibition, s706 alone
  IC50: 254 ± 31.2 µM
ASIC1a; integral currents, pH 5.5, + 0.2 mM (200 µM) FRRFa, n = 5
  nH, ASIC1a inhibition in the presence of FRRFa: 2.4 ± 0.3
ASIC1a; integral currents, pH 5.5, n = 5
  nH, ASIC1a inhibition, s706 alone: 3.1 ± 0.4
